The target of assay [1] is Metabotropic glutamate receptor 7 (Rattus norvegicus) (UniProt P35400). In words: Antagonist activity at rat mGluR7 receptor expressed in HEK293 cells by IP-1 HTRF assay. The format is functional, cell-based. (In general: Time-resolved FRET reads energy transfer from a long-lived donor to a nearby acceptor.)
Assay [2] addresses Metabotropic glutamate receptor 5 (Rattus norvegicus) (UniProt P31424). In words: Antagonist activity at rat mGluR5 receptor expressed in HEK293 cells by IP-1 HTRF assay. The format is functional, cell-based.
The target of assay [3] is Metabotropic glutamate receptor 3 (Rattus norvegicus) (UniProt P31422). In words: Antagonist activity at rat mGluR3 receptor expressed in HEK293 cells by IP-1 HTRF assay. The format is functional, cell-based.
The target is the same in assay [4]. In words: Agonist activity at rat mGluR3 receptor expressed in HEK293 cells at 30 uM by IP-1 HTRF assay. Format: functional, cell-based.
The target of assay [5] is Metabotropic glutamate receptor 2 (Rattus norvegicus) (UniProt P31421). Nature of the assay: Antagonist activity at rat mGluR2 receptor expressed in HEK293 cells by IP-1 HTRF assay. Format: functional, cell-based.
In assay [6] the target is Metabotropic glutamate receptor 1 (Rattus norvegicus) (UniProt P23385). Nature of the assay: Agonist activity at rat mGluR1 receptor expressed in HEK293 cells at 30 uM by IP-1 HTRF assay. The format is functional, cell-based.
The target in assay [7] is Metabotropic glutamate receptor 2 (Rattus norvegicus, UniProt P31421). Nature of the assay: Agonist activity at rat mGluR2 receptor expressed in HEK293 cells by IP-1 HTRF assay. The format is functional, cell-based. To be noted: read-out: EC50.
The target in assay [8] is Metabotropic glutamate receptor 8 (Rattus norvegicus) (UniProt P70579). In words: Agonist activity at rat mGluR8 receptor expressed in HEK293 cells at 30 uM by IP-1 HTRF assay. Format: functional, cell-based.
The target in assay [9] is Metabotropic glutamate receptor 4 (Rattus norvegicus) (UniProt P31423). In words: Antagonist activity at rat mGluR4 receptor expressed in HEK293 cells by IP-1 HTRF assay. The format is functional, cell-based.
For assay [10] the target is unchanged. Nature of the assay: Agonist activity at rat mGluR4 receptor expressed in HEK293 cells at 30 uM by IP-1 HTRF assay. The format is functional, cell-based.
Assay [11] addresses Metabotropic glutamate receptor 1 (Rattus norvegicus) (UniProt P23385). In words: Antagonist activity at rat mGluR1 receptor expressed in HEK293 cells by IP-1 HTRF assay. Format: functional, cell-based.
Assay [12] deals with Metabotropic glutamate receptor 5 (Rattus norvegicus) (UniProt P31424). Nature of the assay: Agonist activity at rat mGluR5 receptor expressed in HEK293 cells at 30 uM by IP-1 HTRF assay. Format: functional, cell-based.
Assay [13] has as its target Metabotropic glutamate receptor 6 (Rattus norvegicus) (UniProt P35349). In words: Antagonist activity at rat mGluR6 receptor expressed in HEK293 cells by IP-1 HTRF assay. The format is functional, cell-based.
The target is the same in assay [14]. Nature of the assay: Agonist activity at rat mGluR6 receptor expressed in HEK293 cells at 30 uM by IP-1 HTRF assay. Format: functional, cell-based.
The target in assay [15] is Metabotropic glutamate receptor 7 (Rattus norvegicus) (UniProt P35400). In words: Agonist activity at rat mGluR7 receptor expressed in HEK293 cells at 30 uM by IP-1 HTRF assay. The format is functional, cell-based.
Assay [16] has as its target Metabotropic glutamate receptor 8 (Rattus norvegicus) (UniProt P70579). In words: Antagonist activity at rat mGluR8 receptor expressed in HEK293 cells by IP-1 HTRF assay. Format: functional, cell-based.
The target of assay [17] is Metabotropic glutamate receptor 3 (Homo sapiens, UniProt Q14832). In words: Agonist activity at human recombinant mGluR3 receptor assessed as inhibition of forskolin-stimulated [3H]cAMP accumulation incubated for 20 mins by SPA kit analysis. Format: functional.
For assay [18], the target named is Metabotropic glutamate receptor 2 (Rattus norvegicus) (UniProt P31421). In words: Agonist activity at rat mGluR2 receptor expressed in HEK293 cells at 30 uM by IP-1 HTRF assay. The format is functional, cell-based.

The structures appear in SMILES notation. Calls of active or inactive are those of the source. The calls are words filed in the database; no cut-off is given here.

Sequence of Metabotropic glutamate receptor 3 (Rattus norvegicus) (P31422 23-879 limits assumed): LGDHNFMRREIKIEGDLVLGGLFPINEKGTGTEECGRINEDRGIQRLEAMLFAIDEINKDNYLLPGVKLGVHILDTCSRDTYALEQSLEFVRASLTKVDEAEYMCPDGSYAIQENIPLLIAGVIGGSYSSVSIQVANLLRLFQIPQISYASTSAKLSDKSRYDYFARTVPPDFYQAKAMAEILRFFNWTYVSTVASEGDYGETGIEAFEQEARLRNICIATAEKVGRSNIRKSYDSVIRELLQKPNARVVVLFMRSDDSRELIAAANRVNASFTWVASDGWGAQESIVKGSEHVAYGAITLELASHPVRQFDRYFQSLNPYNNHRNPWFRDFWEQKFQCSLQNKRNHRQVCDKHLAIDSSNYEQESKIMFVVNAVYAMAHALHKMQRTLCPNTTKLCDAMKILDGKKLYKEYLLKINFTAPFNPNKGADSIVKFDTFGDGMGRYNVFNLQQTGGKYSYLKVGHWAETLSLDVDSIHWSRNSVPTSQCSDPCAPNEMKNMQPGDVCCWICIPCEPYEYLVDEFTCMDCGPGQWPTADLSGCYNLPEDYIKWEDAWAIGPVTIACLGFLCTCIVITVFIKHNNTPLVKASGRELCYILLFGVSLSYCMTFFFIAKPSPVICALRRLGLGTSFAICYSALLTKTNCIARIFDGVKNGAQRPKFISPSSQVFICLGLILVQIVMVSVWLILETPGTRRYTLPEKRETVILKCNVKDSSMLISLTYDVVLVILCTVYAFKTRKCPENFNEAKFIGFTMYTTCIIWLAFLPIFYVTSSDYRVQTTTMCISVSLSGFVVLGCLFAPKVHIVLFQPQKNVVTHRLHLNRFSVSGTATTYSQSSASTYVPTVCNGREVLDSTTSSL
Sequence of Metabotropic glutamate receptor 3 (Q14832 whole entry): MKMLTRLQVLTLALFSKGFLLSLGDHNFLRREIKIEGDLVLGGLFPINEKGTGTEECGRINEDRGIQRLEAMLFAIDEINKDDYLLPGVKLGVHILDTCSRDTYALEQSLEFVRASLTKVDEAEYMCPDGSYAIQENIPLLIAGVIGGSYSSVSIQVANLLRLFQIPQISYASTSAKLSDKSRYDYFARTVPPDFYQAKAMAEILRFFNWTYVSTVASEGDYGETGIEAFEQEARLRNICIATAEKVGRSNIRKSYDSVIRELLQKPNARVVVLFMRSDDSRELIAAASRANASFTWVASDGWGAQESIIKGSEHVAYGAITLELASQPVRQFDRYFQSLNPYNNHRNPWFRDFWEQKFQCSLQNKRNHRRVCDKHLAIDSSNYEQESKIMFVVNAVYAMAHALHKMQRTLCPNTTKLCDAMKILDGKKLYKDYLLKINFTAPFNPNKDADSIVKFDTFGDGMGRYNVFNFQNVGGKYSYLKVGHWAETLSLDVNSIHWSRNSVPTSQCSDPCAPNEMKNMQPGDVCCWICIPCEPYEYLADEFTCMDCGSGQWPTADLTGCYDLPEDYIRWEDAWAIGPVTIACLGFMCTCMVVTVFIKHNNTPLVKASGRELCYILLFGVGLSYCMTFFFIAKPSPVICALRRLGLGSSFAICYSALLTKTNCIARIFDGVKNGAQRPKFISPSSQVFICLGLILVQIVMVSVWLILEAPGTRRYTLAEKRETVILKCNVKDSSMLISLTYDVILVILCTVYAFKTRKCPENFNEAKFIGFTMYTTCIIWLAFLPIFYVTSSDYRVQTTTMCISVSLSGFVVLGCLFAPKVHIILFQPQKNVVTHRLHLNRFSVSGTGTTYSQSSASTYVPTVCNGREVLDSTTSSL
Sequence of Metabotropic glutamate receptor 1 (Rattus norvegicus) (P23385 19-1199 limits assumed): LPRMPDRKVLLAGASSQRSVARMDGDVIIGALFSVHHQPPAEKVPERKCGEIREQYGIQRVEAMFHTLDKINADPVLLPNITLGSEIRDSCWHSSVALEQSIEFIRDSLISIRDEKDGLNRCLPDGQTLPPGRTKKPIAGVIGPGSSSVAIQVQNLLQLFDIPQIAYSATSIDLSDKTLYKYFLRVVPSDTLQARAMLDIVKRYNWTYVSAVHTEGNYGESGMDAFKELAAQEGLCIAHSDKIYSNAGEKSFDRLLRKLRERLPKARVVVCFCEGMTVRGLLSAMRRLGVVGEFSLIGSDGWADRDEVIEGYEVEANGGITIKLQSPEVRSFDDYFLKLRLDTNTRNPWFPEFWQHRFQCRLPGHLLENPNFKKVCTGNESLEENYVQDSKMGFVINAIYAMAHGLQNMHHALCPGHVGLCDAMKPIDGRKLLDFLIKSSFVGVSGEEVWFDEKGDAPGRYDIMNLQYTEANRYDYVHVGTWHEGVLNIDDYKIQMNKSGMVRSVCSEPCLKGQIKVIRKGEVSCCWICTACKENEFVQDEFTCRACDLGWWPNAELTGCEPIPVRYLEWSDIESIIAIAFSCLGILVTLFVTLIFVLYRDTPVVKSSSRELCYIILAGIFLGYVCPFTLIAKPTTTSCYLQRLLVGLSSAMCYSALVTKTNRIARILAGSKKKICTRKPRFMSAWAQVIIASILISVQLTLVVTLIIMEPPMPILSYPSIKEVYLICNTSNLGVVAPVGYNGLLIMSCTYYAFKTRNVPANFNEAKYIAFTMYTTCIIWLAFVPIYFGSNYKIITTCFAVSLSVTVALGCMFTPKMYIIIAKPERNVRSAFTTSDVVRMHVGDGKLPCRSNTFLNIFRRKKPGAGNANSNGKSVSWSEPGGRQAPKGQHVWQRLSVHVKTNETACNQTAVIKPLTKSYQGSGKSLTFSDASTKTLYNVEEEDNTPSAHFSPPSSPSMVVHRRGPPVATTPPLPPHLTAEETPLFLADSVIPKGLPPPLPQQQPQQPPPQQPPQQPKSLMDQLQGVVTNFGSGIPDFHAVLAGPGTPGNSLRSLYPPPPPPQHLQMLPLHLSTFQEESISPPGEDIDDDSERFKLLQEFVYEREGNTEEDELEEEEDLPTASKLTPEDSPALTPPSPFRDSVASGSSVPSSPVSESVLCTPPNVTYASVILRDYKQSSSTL
Sequence of Metabotropic glutamate receptor 2 (P31421 whole entry): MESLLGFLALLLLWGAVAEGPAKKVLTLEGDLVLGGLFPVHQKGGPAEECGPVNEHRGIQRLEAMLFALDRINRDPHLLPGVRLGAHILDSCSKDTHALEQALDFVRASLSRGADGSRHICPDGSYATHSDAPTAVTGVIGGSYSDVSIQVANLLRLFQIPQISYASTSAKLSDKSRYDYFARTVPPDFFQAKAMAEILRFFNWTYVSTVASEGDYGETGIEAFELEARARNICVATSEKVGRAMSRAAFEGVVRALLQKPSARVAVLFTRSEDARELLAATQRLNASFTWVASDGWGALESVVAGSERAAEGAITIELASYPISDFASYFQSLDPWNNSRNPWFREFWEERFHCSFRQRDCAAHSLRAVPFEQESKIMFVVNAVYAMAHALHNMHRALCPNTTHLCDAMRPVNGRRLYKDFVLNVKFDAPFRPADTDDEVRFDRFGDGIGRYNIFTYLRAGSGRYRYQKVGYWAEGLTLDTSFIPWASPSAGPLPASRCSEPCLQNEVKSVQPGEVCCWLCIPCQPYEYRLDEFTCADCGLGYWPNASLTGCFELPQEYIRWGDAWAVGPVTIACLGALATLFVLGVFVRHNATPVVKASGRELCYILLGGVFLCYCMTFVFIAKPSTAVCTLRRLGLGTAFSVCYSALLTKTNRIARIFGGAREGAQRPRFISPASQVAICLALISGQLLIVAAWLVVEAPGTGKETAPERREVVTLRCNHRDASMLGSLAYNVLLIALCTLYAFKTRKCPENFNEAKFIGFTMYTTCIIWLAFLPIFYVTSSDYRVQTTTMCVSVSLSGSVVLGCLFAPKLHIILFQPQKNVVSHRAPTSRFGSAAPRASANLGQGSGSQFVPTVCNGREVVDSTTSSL
Sequence of Metabotropic glutamate receptor 5 (Rattus norvegicus) (P31424 21-1203 limits assumed): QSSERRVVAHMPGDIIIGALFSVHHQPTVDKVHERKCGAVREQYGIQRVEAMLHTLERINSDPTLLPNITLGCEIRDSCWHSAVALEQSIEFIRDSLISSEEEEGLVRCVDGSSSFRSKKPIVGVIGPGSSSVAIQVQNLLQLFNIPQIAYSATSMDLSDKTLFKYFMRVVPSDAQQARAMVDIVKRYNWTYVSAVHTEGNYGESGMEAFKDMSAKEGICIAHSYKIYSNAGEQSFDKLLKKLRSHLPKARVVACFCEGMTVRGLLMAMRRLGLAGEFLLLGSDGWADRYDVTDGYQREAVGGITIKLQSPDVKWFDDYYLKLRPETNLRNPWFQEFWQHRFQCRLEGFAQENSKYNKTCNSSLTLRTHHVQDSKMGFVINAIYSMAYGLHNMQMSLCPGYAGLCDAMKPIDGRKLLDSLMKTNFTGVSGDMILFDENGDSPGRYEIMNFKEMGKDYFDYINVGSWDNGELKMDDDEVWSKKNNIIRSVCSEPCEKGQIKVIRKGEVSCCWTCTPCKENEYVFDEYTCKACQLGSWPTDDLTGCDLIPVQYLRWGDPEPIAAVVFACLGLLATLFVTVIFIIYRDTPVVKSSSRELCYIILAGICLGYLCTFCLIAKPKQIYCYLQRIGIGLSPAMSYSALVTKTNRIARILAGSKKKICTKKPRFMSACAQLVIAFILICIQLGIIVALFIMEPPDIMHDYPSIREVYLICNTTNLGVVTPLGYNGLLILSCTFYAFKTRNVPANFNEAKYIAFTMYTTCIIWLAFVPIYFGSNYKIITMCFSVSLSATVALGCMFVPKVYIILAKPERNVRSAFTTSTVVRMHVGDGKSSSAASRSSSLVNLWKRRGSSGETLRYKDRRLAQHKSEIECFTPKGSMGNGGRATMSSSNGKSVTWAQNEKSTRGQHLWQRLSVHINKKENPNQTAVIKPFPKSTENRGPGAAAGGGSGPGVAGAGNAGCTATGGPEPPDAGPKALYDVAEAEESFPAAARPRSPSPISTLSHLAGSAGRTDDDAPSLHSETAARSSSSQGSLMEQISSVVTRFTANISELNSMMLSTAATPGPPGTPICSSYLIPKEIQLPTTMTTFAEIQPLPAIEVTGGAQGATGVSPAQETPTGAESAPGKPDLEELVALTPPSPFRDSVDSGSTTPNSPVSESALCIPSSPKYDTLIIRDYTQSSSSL

By EC50 is commonly meant the concentration giving half of the maximal effect. For `C[C@@]1(C(=O)O)C[C@@H]1C(N)C(=O)O` (mixture of isomers), the inhibition entry in [1], in [2], in assay [3], in assay [5], in assay [9] and in assay [11] was “inactive” each time. Besides, the inhibition result in assay [13] and in assay [16] was “inactive” throughout. Besides, the result in [4], in assay [6], in assay [8], in assay [10], in [12] and in [14] was inactive. Besides, in [15], the outcome was inactive. The EC50 in assay [7] was found to be 8.9 µM.

Consider `N[C@@H](CCC(=O)O)C(=O)O` [GLUTAMIC ACID], for which the half-maximal effective concentration (EC50) in assay [17] is 9 µM.

On to `N[C@H](C(=O)O)[C@H]1[C@@H](CO)[C@@H]1C(=O)O`, for which the EC50 in assay [17] is 0.038 µM.

Take `C[C@]1(C[C@H](N)C(=O)O)C[C@@H]1C(=O)O`: the inhibition entry in assay [1], in [2], in assay [3], in [5], in [9] and in [11] was “inactive” throughout. Further, the inhibition result in assay [13] and in assay [16] was “inactive” in each case. In addition, the outcome in assay [4], in assay [6], in assay [8], in [10], in assay [12] and in assay [14] was inactive. In addition, the outcome in [15] and in [18] was inactive.

Turning to `CC[C@]1(C(=O)O)C[C@@H]1[C@H](N)C(=O)O`, the inhibition result in assay [1], in assay [2], in assay [3], in [5], in [9] and in assay [11] was “inactive” in each case. The inhibition result in assay [13] and in [16] was “inactive” each time. Further, the result in [4], in [6], in assay [8], in assay [10], in assay [12] and in assay [14] was inactive. In addition, the result in assay [15] and in [18] was inactive.

On to `C[C@]1(C(=O)O)C[C@@H]1[C@H](N)C(=O)O`, for which the inhibition result in assay [1], in assay [2], in assay [3], in assay [5], in assay [9] and in [11] was “inactive” each time. The inhibition entry in assay [13] and in assay [16] was “inactive” each time. In addition, the result in assay [4], in [6], in assay [8], in assay [10], in [12] and in assay [14] was inactive. Also, the outcome in assay [15] was inactive. For the same compound, the EC50 in [7] was determined as 4.1 µM.

With `C[C@]1(C(=O)O)C[C@H]1C(N)C(=O)O` (mixture of isomers), the inhibition entry in assay [1], in assay [2], in [3], in [5], in [9] and in assay [11] was “inactive” each time. The inhibition result in assay [13] and in assay [16] was “inactive” each time. For the same compound, the outcome in assay [4], in [6], in assay [8], in assay [10], in assay [12] and in [14] was inactive. For the same compound, the result in [15] and in [18] was inactive.

Regarding `CC1(C[C@H](N)C(=O)O)CC1C(=O)O` (some centres undefined), the inhibition result in assay [1], in assay [2], in assay [3], in assay [5], in assay [9] and in assay [11] was “inactive” each time. The inhibition entry in [13] and in assay [16] was “inactive” each time.

`C[C@]1(C[C@H](N)C(=O)O)C[C@H]1C(=O)O`: the inhibition result in assay [1], in assay [2], in assay [3], in assay [5], in [9] and in assay [11] was “inactive” in each case. For the same compound, the inhibition result in assay [13] and in assay [16] was “inactive” in each case. For the same compound, the outcome in [4], in assay [6], in assay [8], in assay [10], in [12] and in assay [14] was inactive. Moreover, the outcome in assay [15] and in assay [18] was inactive.

Consider `N[C@@]1(C(=O)O)CC[C@@H](C(=O)O)C1`, for which the EC50 in [17] stood at 860 µM.

Consider `C[C@@]1(C[C@H](N)C(=O)O)C[C@@H]1C(=O)O`, for which the inhibition result in [1], in [2], in assay [3], in [5], in assay [9] and in assay [11] was “inactive” each time. Further, the inhibition entry in assay [13] and in assay [16] was “inactive” in each case. Besides, the outcome in assay [4], in assay [6], in assay [8], in [10], in assay [12] and in assay [14] was inactive. Further, the result in assay [15] was inactive. For the same compound, the EC50 in assay [7] was found to be 7.5 µM.

For the compound `C[C@@]1(C[C@H](N)C(=O)O)C[C@H]1C(=O)O`, the inhibition entry in assay [1], in assay [2], in [3], in assay [5], in assay [9] and in assay [11] was “inactive” each time. Also, the inhibition entry in assay [13] and in [16] was “inactive” each time. Also, the result in assay [4], in [6], in assay [8], in assay [10], in assay [12] and in assay [14] was inactive. Further, the result in [15] and in assay [18] was inactive.

Source of the values: ChEMBL document CHEMBL5505966, “Synthesis and pharmacological characterization of conformationally restricted 2-amino-Adipic acid analogs and carboxycyclopropyl glycines as selective metabotropic glutamate 2 receptor agonists” (Eur J Med Chem, 2024).
